Assay results: patent US11548868B2, “Heterocyclic compounds, compositions comprising heterocyclic compound, and methods of use thereof” (JS INNOPHARM (SHANGHAI) LTD, priority 2017, dated 2023)
Where a name gives a salt, the structure may show the parent alone.

Molecular target: T1, TDO2 in A172 cancer cells (Homo sapiens, UniProt P48775)
T1 construct: endogenous in cells; host or cells: A172 cancer cells
Experiment: TDO2 Cellular Assay (kynurenine production in A172 cancer cells)
Assay type: cell-based
Settings: L-Trp 1 mM, 24 hours incubation, kynurenine at 490 nm
Experimental: A172 cancer cells (3×10^4 per well) in 85 μL DMEM medium containing 10% FBS were seeded in a 96-well plate and incubated at 95% humidity and 5% CO2 at 37° C. for overnight. On the next day, L-Trp solution (10 μL, 1 mM final concentration) and serial dilutions of the test compounds and DMEM medium resulting in a total final volume of 100 μL each well. The test compounds were dissolved in DMSO and successively diluted with pH7.5 butter (with final DMSO concentration of 0.25%) resulting in final concentrations of the test compounds ranging from 0 to 25 μM (0, 2.5, 7.5, 25, 75, 250, 750, 2500, 7500, & 25000 nM). After 24 hours of incubation, 70 uL of the supernatant per well was transferred to a new 96 well plate. 8 μL of trichloroacetic acid (6.1 N) was mixed into each well and incubated at 50° C. for 30 min to hydrolyze N-formylkynurenine to kynurenine. The reaction mixture was then centrifuged for 10 min at 2500 RPM to remove sediments. 50 μL of the supernatant per well was transferred to another 96 well plate and mixed with 50 μL of 2% (w/v) p-dimethylaminobenzaldehyde in acetic acid. The yellow color derived from kynurenine was measured at 490 nm using a microplate reader. Percent inhibition of the test compounds was determined by measuring the decrease in kynurenine as compared to the control of DMSO vehicle, which was calculated by formula of (WC−WT)/WC, where WC is the mean absorbance of the control well minus blank well; WT is the mean absorbance of the test well minus the blank well. Data was analyzed by GraphPad Prism 5 and the IC50 values were obtained by non-linear regression.
The IC50 values of for Compounds disclosed are listed in Table 2, A′: ≤0.5 μM; B′: >0.5 μM and ≤1 μM; C′: >1.0 μM and ≤5 uM; and D′: >5 μM.

T1 sequence (P48775 whole entry): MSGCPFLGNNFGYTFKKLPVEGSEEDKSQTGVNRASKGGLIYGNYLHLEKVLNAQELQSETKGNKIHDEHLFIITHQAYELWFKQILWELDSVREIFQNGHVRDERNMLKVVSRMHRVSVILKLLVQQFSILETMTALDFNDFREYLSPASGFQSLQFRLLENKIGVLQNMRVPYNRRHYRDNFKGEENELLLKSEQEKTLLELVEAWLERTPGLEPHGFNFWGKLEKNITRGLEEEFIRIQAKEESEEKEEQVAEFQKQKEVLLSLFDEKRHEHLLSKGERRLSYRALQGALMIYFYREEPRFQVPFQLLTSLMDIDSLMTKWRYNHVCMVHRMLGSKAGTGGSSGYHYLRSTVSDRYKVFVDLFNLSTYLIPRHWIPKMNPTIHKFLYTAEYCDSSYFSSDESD

| Structure (SMILES) | IC50 [nM] |
| --- | --- |
| O=C([C@H]1CC[C@H](O)CC1)N1C[C@@H]2C[C@@](O)(c3cc(Cl)cc4[nH]ncc34)C[C@@H]2C1 [Example 66, ((3aR,5R,6aS)-5-(6-chloro-1H-indazol-4-yl)-5-hydroxyhexahydrocyclopenta[c]pyrrol-2(1H)-yl)((1r,4R)-4-hydroxycyclohexyl)methanone] | ≤ 500 |
| O=C(N[C@H]1[C@@H]2C[C@@](O)(c3cc(Cl)cc4[nH]ncc34)C[C@@H]21)C1CC1 [Example 76, N-((1R,3r,5S,6r)-3-(6-chloro-1H-indazol-4-yl)-3-hydroxybicyclo[3.1.0]hexan-6-yl)cyclopropanecarboxamide] | ≤ 500 |
| O=C(CC1CC1)N1C[C@@H]2C[C@@](O)(c3cc(Cl)cc4[nH]ncc34)C[C@@H]2C1 [Example 69, 1-((3aR,5r,6aS)-5-(6-chloro-1H-indazol-4-yl)-5-hydroxyhexahydrocyclopenta[c]pyrrol-2(1H)-yl)-2-cyclopropylethanone] | ≤ 500 |
| O=C(N[C@H]1[C@@H]2C[C@@](O)(c3cc(Cl)cc4[nH]ncc34)C[C@@H]21)C1CCOC1 (stereo partly drawn) [Example 72, N-((1R,3r,5S,6r)-3-(6-chloro-1H-indazol-4-yl)-3-hydroxybicyclo[3.1.0]hexan-6-yl)tetrahydrofuran-3-carboxamide] | ≤ 500 |
| COC(=O)N[C@H]1[C@@H]2C[C@@](O)(c3cc(Cl)cc4[nH]ncc34)C[C@@H]21 [Example 80, methyl ((1R,3r,5S,6r)-3-(6-chloro-1H-indazol-4-yl)-3-hydroxybicyclo[3.1.0]hexan-6-yl)carbamate] | ≤ 500 |
| CC(C)C(=O)N1C[C@@H]2C[C@@](O)(c3cc(Cl)cc4[nH]ncc34)C[C@@H]2C1 [Example 65, 1-((3aR,5r,6aS)-5-(6-chloro-1H-indazol-4-yl)-5-hydroxyhexahydrocyclopenta[c]pyrrol-2(1H)-yl)-2-methylpropan-1-one] | ≤ 500 |
| O=C(N[C@H]1[C@@H]2C[C@@](O)(c3cc(Cl)cc4[nH]ncc34)C[C@@H]21)C1CCOCC1 [Example 91, N-((1R,3r,5S,6r)-3-(6-chloro-1H-indazol-4-yl)-3-hydroxybicyclo[3.1.0]hexan-6-yl)tetrahydro-2H-pyran-4-carboxamide] | ≤ 500 |
| O=C(C1CCCC1)N1C[C@@H]2C[C@@](O)(c3cc(Cl)cc4[nH]ncc34)C[C@@H]2C1 [Example 59, ((3aR,5r,6aS)-5-(6-chloro-1H-indazol-4-yl)-5-hydroxyhexahydrocyclopenta[c]pyrrol-2(1H)-yl)(cyclopentyl)methanone] | ≤ 500 |
| NCC(=O)N[C@H]1[C@@H]2C[C@@](O)(c3cc(Cl)cc4[nH]ncc34)C[C@@H]21 [Example 103, 2-amino-N-((1R,3r,5S,6r)-3-(6-chloro-1H-indazol-4-yl)-3-hydroxybicyclo[3.1.0]hexan-6-yl)acetamide hydrochloride] | 1000 to 5000 |
| CCC(=O)N[C@H]1[C@@H]2C[C@@](O)(c3cc(Cl)cc4[nH]ncc34)C[C@@H]21 [Example 82, N-((1R,3r,5S,6r)-3-(6-chloro-1H-indazol-4-yl)-3-hydroxybicyclo[3.1.0]hexan-6-yl)propionamide] | ≤ 500 |
| N#Cc1ccc(C(=O)N2C[C@@H]3CN(c4cc(Cl)cc5[nH]ncc45)C[C@@H]3C2)cc1 [Example 34, 4-((3aR,6aS)-5-(6-chloro-1H-indazol-4-yl)octahydropyrrolo[3,4-c]pyrrole-2-carbonyl)benzonitrile] | > 5000 |
| O[C@@]1(c2cc(Cl)cc3[nH]ncc23)C[C@H]2CCC[C@H]2C1 [Example 30, (2r,3aR,6aS)-2-(6-chloro-1H-indazol-4-yl)octahydropentalen-2-ol] | ≤ 500 |
| O=C(C1CCOCC1)N1C[C@@H]2C[C@@](O)(c3cc(Cl)cc4[nH]ncc34)C[C@@H]2C1 [Example 88, ((3aR,5r,6aS)-5-(6-chloro-1H-indazol-4-yl)-5-hydroxyhexahydrocyclopenta[c]pyrrol-2(1H)-yl)(tetrahydro-2H-pyran-4-yl)methanone] | ≤ 500 |
